Laboratory results as given in patent publication US20220275376A1, “TARGETING SLC38A2 IN PANCREATIC CANCER” (New York University, priority 2019, published 2022).

How the values were obtained:
PANC1 cells [1] = test: Intracellular alanine levels in drug-treated PANC1 cells (GC-MS); type: cell-based, human; details: 24 hours, PXT 10 μM, DPM 10, racemic FLX 10 or 25 μM, vs vehicle (DMSO)
Method: (A) Western blot depicting SLC38A2 levels in PANC1 cells engineered to express SLC38A2 under control of doxycycline. Withdrawal of doxycycline results in a significant depletion in SLC38A2 levels after 24 hours.
Fluvoxamine (FVX), fluoxetine (FLX), paroxetine (PXT), sertindole (SND), and blonanserin (BNS) were acquired from Cayman Chemicals. Desipramine (DPM), α-(Methylamino) isobutyric acid (MeAIB), and L-alanine were acquired from Sigma. Stocks were prepared at 10 mM or 7.5 mM (BNS) in DMSO. Cells were treated with vehicle (DMSO) or varying concentrations of drug for indicated time. Conditioned media was collected and centrifuged at 1,000×g to remove cell debris followed by extraction of metabolites. For metabolite extraction, cells were first washed with ice cold 0.9% NaCl to remove media contamination followed by addition of 500 μL methanol (−20° C.) and 200 μL HPLC grade water (4° C.). Cells were scraped and pipeted into glass vials containing 500 μL chloroform (4° C.) and vortexed at 4° C. for 10-15 minutes. Aqueous and inorganic layers were separated by cold centrifugation for 15 minutes. 300 μL of the aqueous layer containing polar metabolites was transferred to sample vials (Agilent 5190-2243) and evaporated using a SpeedVac (Savant Thermo SPD111V). Dried samples were stored at −20° C. and re-evaporated for 5-10 minutes prior to derivatization and GC-MS analysis.

SLC38A2 = target: T1, SLC38A2 (Homo sapiens, UniProt Q96QD8); test: SLC38A2 activity measured by MeAIB uptake in HY15549 dox-inducible SNAT2 cells; type: cell-based; details: for inhibition of MeAIB uptake (intracellular MeAIB levels): 20 μm compound, MeAIB 0.3 mM, 1 hour, vs vehicle (PBS), HY15549 cells expressing dox-inducible SLC38A2/SNAT2
T1 construct: expressed in transfected cells; host or cells: HY15549 cells with dox-inducible SNAT2
T1 sequence (Q96QD8 1-506): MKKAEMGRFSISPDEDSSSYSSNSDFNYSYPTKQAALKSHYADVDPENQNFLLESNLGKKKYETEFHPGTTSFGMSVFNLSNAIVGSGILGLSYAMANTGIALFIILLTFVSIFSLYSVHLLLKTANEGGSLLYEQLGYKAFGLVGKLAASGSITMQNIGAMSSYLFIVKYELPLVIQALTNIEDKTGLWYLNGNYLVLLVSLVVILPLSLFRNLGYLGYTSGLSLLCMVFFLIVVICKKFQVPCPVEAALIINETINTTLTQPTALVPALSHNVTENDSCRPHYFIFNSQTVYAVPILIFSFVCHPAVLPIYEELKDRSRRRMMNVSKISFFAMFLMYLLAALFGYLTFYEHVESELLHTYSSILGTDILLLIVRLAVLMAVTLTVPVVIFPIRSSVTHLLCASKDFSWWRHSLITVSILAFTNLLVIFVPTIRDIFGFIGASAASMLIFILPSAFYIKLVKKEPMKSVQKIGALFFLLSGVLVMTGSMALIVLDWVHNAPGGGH
Method: (A) Schematic depicting SLC38A2-dependent update of alanine structural analog, methyl α-aminoisobutyrate (MeAIB). […] (B) Total ion chromatogram (TIC) of HY15549 dox-inducible SNAT2 cells treated with 1 mM MeAIB for 24 hours compared to vehicle (PBS). […] HY15549 dox-inducible SNAT2 cells were cultured with a concentration gradient of MeAIB for 15 minutes (gray circles) or 60 minutes (black squares). (D) Western blot depicting SLC38A2 expression relative to doxycycline after 24 hours culture in HY15549 dox-inducible SNAT2 cells. (E) Intracellular MeAIB levels in HY15549 dox-inducible cells cultured with dox (+SNAT2, left bar) and without dox (KO, right bar) for 24 hours with 1 mM MeAIB. (F) Intracellular MeAIB levels in HY15549 dox-inducible cells cultured with vehicle, paroxetine (PXT, 20 μM), or sertraline (SRT, 20 μm) for 24 hours with 300 μM MeAIB.

PANC1 cells [2] = test: Orthotopic xenograft, PANC1 cells; type: in vivo, NCr nude mice; details: for tumor burden (tumor weight after resection): PANC1 (5×10^5) pooled SLC38A2-deficient cells vs sgTom, 63 days; for tumor initiation: SLC38A2 knockdown PANC1 cells (5×10^5), orthotopic, vs shGFP, 3-D ultrasound, tumor if volume ≥1 mm^3
Method: (§1) (A) SLC38A2 staining in pancreatic tumors derived from the KPC (LSL-Kras^G12D; Trp53^lox/+; p48Cre+) mouse model and normal murine pancreas. Representative fields from KPC (4×, left) and normal pancreas (10×, right) are depicted with scale bars. Arrows indicate instances of punctate SLC38A2 in normal pancreas (right). (B) Representative live cell images of HY19636 (left) and mPSC #1 (right) cells transiently transfected with 3 μg of SLC38A2-GFP (green) overnight and stained with MitoTracker (red) to visualize individual cells; scale bars are indicated in figures. […] Subcutaneous tumors were monitored bi-weekly by caliper measurement and considered formed if length and width were measured to be ≥1 mm each. […] Orthotopic xenografts were monitored by 3-D ultrasound bi-weekly and considered tumors if volume ≥1 mm^3. […] HY19636 (2.5×10^4) or PANC1 (5×10^5) control (sgTom) or pooled SLC38A2-deficient (sgSLC38A2 #1, #3) cells were injected orthotopically, and tumors were weighed following resection after 27 days (HY19636) or 63 days (PANC1). Error bars depict s.e.m. of tumors resected from 9-10 mice.
For orthotopic xenograft experiments, PANC1 cells were infected with lentiviral shRNAs or sgRNAs targeting SLC38A2 or GFP/Tomato as a control and selected with puromycin (2 μg/mL) for three days. For syngeneic orthotopic allograft studies, HY19636 cells were infected with lentiviral sgRNAs targeting SLC38A2 or Tomato and selected with puromycin (2 μg/mL) for three days. 500,000 PANC1 cells or […] HY19636 cells were resuspended in 10 μl HBSS and 10 μl growth factor-reduced matrigel (Corning 356231) per injection and kept on ice. Female 7-8 week old NCr nude or C57BL/6J mice were used for xenograft and allograft experiments, respectively. An incision was made near the spleen which was gently removed from the peritoneal space to expose the pancreas. The 20 μL cell:matrigel suspension was slowly injected into the tail of the exposed pancreas using either a Hamilton or insulin syringe (BD 324702). After injection, the needle was held in place by tweezers briefly to allow the matrigel to polymerize before gently removing the needle and re-introducing the spleen and pancreas into the animal. The peritoneum was sutured and the wound was closed with surgical staples. Buprenorphine was administered by intraperitoneal injection and immediately after surgery and every 12 hours for 48 hours.
After injection, all mice were allowed to recover from surgery for five days before screening for tumor initiation by non-invasive 3-D ultrasound imaging (VisualSonics Vevo 770) twice a week under anesthesia using 1-3% isoflurane via nose cone. Tumor initiation was considered if volume ≥1 mm^3 and sustained or increased in volume over the course of the experiment. […]

HY19636 cells = test: Orthotopic syngeneic allograft, HY19636 cells; type: in vivo, C57BL/6J mice; details: HY19636 (2.5×10^4) pooled SLC38A2-deficient cells vs sgTom, 27 days
Method: as §1
For orthotopic xenograft experiments, PANC1 cells were infected with lentiviral shRNAs or sgRNAs targeting SLC38A2 or GFP/Tomato as a control and selected with puromycin (2 μg/mL) for three days. […]

PANC1 cells [3] = test: Subcutaneous xenograft tumor initiation, PANC1 cells co-injected with hPSC #1 cells; type: in vivo, NCr nude mice; details: SLC38A2 knockdown PANC1 cells (2×10^5) co-injected with hPSC #1 cells (1×10^6), vs shGFP; tumor if length and width ≥1 mm
Method: (A) SLC38A2 staining in pancreatic tumors derived from the KPC (LSL-Kras^G12D; Trp53^lox/+; p48Cre+) mouse model and normal murine pancreas. Representative fields from KPC (4×, left) and normal pancreas (10×, right) are depicted with scale bars. Arrows indicate instances of punctate SLC38A2 in normal pancreas (right). (B) Representative live cell images of HY19636 (left) and mPSC #1 (right) cells transiently transfected with 3 μg of SLC38A2-GFP (green) overnight and stained with MitoTracker (red) to visualize individual cells; scale bars are indicated in figures. […] Subcutaneous tumors were monitored bi-weekly by caliper measurement and considered formed if length and width were measured to be ≥1 mm each. […] Orthotopic xenografts were monitored by 3-D ultrasound bi-weekly and considered tumors if volume ≥1 mm^3. […]
For subcutaneous co-injection tumor initiation studies, PANC1 cells were infected with lentiviral shRNAs targeting SLC38A2 or GFP as a control shRNA and selected with puromycin (2 μg/mL) for three days. […] Tumor initiation was monitored two to three times per week by caliper measurement. Tumor initiation was considered if length and width were measured to be ≥1 mm each.

Compound: CNCCC(Oc1ccc(C(F)(F)F)cc1)c1ccccc1 (racemic) [fluoxetine]
- reduction of intracellular alanine levels (PANC1 cells [1]): ~50%

Compound: CNC(C)(C)C(=O)O [MeAIB, α-(Methylamino) isobutyric acid]
- Km (SLC38A2; HY15549 dox-inducible SNAT2 cells, MeAIB concentration gradient, 15 or 60 minutes, read-out: Km of MeAIB uptake (Michaelis-Menten kinetics)): ~3.5 mM

Compound: CNCCCN1c2ccccc2CCc2ccccc21 [desipramine]
- reduction of intracellular alanine levels (PANC1 cells [1]): ~50%

Compound: Fc1ccc([C@@H]2CCNC[C@H]2COc2ccc3c(c2)OCO3)cc1 [paroxetine]
- inhibition of MeAIB uptake (intracellular MeAIB levels) (SLC38A2): inhibited
- reduction of intracellular alanine levels (PANC1 cells [1]): ~50%

Compound: CN[C@H]1CC[C@@H](c2ccc(Cl)c(Cl)c2)c2ccccc21 [sertraline]
- inhibition of MeAIB uptake (intracellular MeAIB levels) (SLC38A2): inhibited

Compound: sgSLC38A2 #1: CRISPR sgRNA targeting SLC38A2, TAATCTGAGCAATGCGATTG (SEQ ID NO:7) (expressed or natural sequence)
- tumor burden (tumor weight after resection) (PANC1 cells [2]): significantly reduced tumor burden
- tumor burden (tumor weight after resection) (HY19636 cells): significantly reduced tumor burden

Compound: sgSLC38A2 #3: CRISPR sgRNA targeting SLC38A2, TCTTATGCCATGGCTAATAC (SEQ ID NO:8) (expressed or natural sequence)
- tumor burden (tumor weight after resection) (PANC1 cells [2]): significantly reduced tumor burden
- tumor burden (tumor weight after resection) (HY19636 cells): significantly reduced tumor burden

Compound: shSLC38A2 #1: lentiviral shRNA targeting SLC38A2, GGAGAAGATACTGTGGCAA (SEQ ID NO:2), TRCN0000020243
- tumor initiation (PANC1 cells [2]): significantly suppressed
- tumor initiation (PANC1 cells [3]): significantly suppressed

Compound: shSLC38A2 #4: lentiviral shRNA targeting SLC38A2, GAATACCAAGAGTTGTTTCTA (SEQ ID NO:3), TRCN0000020241
- tumor initiation (PANC1 cells [2]): significantly suppressed
- tumor initiation (PANC1 cells [3]): significantly suppressed
